Among the data in PubChem BioAssay (NCI) are GI50 and TGI values, retold here.

Holding throughout (test): NCI anticancer screen, dose series, 48 h
Test [1] has as its system ACHN renal.
The test system of test [2] is MDA-MB-231 breast.
For test [3], the system named is T-47D breast.
In test [4] the test system is RPMI-8226 leukemia.
The subject of test [5] is HOP-62 NSCLC.
The subject of test [6] is SK-MEL-28 melanoma.
Test [7] concerns NCI-H522 lung.
In test [8] the test system is SW-620 colon.
The test system of test [9] is MOLT-4 leukemia.
Test [10] relates to NCI-H460 lung.
Test [11] concerns CAKI-1 renal.
The subject of test [12] is SNB-19 CNS.
The test system of test [13] is HL-60(TB) leukemia.

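Step 1: Grow cells in 96-well plates. Step 2: Expose to compound for 48 hours at 5 concentrations. Step 3: Interpolate endpoints linearly; if unreached, use highest concentration. GI50: concentration for 50% inhibition of growth. At the TGI there is no net growth.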

With `Clc1ccc2c(NCCNc3nc(-c4ccccc4)cc(-c4ccccc4)n3)ccnc2c1`, the GI50 is 1.7 µM in [1]; 1.85 µM in test [2]; 1.5 µM in test [3]; 2.19 µM in test [4]; 1.61 µM in [5]; 1.76 µM in [6]. In addition, in test [7], the GI50 was 1.87 µM. The TGI came to 3.1 µM in test [1]; 3.44 µM in test [2]; 3.47 µM in [3]; 5.1 µM in test [4]; 3.05 µM in test [5]; 3.23 µM in test [6]. The TGI in [7] was found to be 3.76 µM.
As for `N#Cc1c(N2CCOCC2)ncn(-c2ccccc2)c1=O`, the TGI in test [8], in test [1], in test [9], in test [10], in test [3] and in test [4] was greater than 100 µM in each case. Also, the TGI in test [11], in test [5], in [12], in test [6] and in test [13] was greater than 100 µM in each case.
Take `CC(=O)OC1CC(OC2C(O)CC(OC3C(O)CC(OC4CCC5(C)C(CCC6C5CC(O)C5(C)C(C7=CC(=O)OC7)CCC65O)C4)OC3C)OC2C)OC(C)C1O` (stereo not drawn) (tested in a mixture with another compound): the TGI came out at 0.268 µM in test [8]; 0.0818 µM in test [1]; 0.518 µM in test [2]; 0.0368 µM in test [10]; 0.41 µM in [3]; 0.0818 µM in [11]. Moreover, the TGI in test [5] came out at 0.152 µM; in test [12], 0.458 µM; in test [7], 0.0275 µM.
`C(/COc1cccnc1)=N\NC1=NCCN1`: the TGI in test [8], in test [1], in [9], in [10], in test [4] and in test [11] was greater than 100 µM throughout. In addition, the TGI in test [5], in test [12], in test [6], in test [13] and in test [7] was greater than 100 µM in each case.
As to `CCC(C)(C)NC1=C(NC(C)=O)C(=O)c2ccccc2C1=O`, the TGI in [8] is greater than 75 µM; in test [1] it was 43.2 µM; in test [9], 31.6 µM; in [10], greater than 75 µM; in [5], greater than 75 µM; in test [12], greater than 75 µM. In addition, the TGI in test [6] is greater than 75 µM; in test [13], 43 µM; in test [7], 28.7 µM.
As for `Cc1cc2c3c(ccc4ncc(c43)CN2c2ccc(NS(C)(=O)=O)cc2)[nH]1`, the TGI in test [8] was greater than 100 µM; in [1], greater than 100 µM; in [2] it was 68.1 µM; in test [9] it was greater than 100 µM; in [10], greater than 100 µM; in [4], 55.3 µM. Further, the TGI is 64.5 µM in test [11]; 46.1 µM in test [5]; 10.4 µM in test [12]; greater than 100 µM in test [6]; greater than 100 µM in [13]; greater than 100 µM in test [7].
Turning to `Cc1[nH]n(-c2ccccc2)c(=S)c1C(=O)c1ccccc1`, the TGI in test [8] is greater than 100 µM; in [1], greater than 100 µM; in test [9], 79.4 µM; in test [4], 50.2 µM; in test [11] it was greater than 100 µM; in test [12], greater than 100 µM. Besides, the TGI in test [6], in [13] and in test [7] was greater than 100 µM each time.
On to `Cc1c(-c2ccccc2)n(C)c2cn[nH]c(=O)c12`, for which the TGI in test [8] is greater than 100 µM; in [1], greater than 100 µM; in [2], 36.9 µM; in test [9], greater than 100 µM; in test [10], greater than 100 µM; in test [4] it was greater than 100 µM. Also, the TGI in test [11] is greater than 100 µM; in test [5] it was 80.3 µM; in [12], greater than 100 µM; in [6], greater than 100 µM; in test [13], greater than 100 µM; in [7] it was greater than 100 µM.
For the compound `Cn1ncc2c(NCCc3ccccc3)nc(Cl)nc21`, the TGI in test [8] is 89.1 µM; in [1] it was greater than 100 µM; in test [2] it was 39.4 µM; in test [9], 39.9 µM; in [10], 31.1 µM; in test [3] it was 79.3 µM. Besides, the TGI in [4] was 47.4 µM; in test [11], 91.4 µM; in test [5], 81.3 µM; in test [12], greater than 100 µM; in [6] it was 76.4 µM; in test [7] it was greater than 100 µM.
As for `CC(C)(C)OC(=O)C1/C(=C/CO)CN1C(=O)OC(C)(C)C` (stereo not drawn), the TGI in test [8], in [1], in test [9], in test [10], in [4] and in test [11] was greater than 100 µM throughout. Further, the TGI in test [5], in [12], in [6] and in test [13] was greater than 100 µM throughout.
For `COc1cc(OC)c(/C=N/N=C(\N)NO)c(OC)c1`, the TGI in test [8], in [1], in [2], in test [9], in [10] and in [3] was greater than 100 µM in each case. Further, the TGI in test [4], in [11], in [5], in test [12], in [6] and in test [7] was greater than 100 µM in each case.
On to `c1ccc2cc3n[se]nc3cc2c1`, for which the TGI in test [8], in [1], in test [9], in [4], in test [11] and in test [12] was greater than 100 µM throughout. The TGI in test [6], in [13] and in test [7] was greater than 100 µM throughout.
`C[n+]1c2ccccc2c(NC(CCC(N)=O)C(=O)O)c2ccccc21` (stereo not drawn): the TGI in test [8], in [1], in [9], in test [10], in [4] and in [5] was greater than 100 µM each time. Also, the TGI in test [12], in test [13] and in test [7] was greater than 100 µM each time.
As to `CC(C)NC(C)Cc1ccccc1` (stereo not drawn), the TGI in [8], in [1], in [10], in test [4], in test [11] and in test [5] was greater than 100 µM each time. Besides, the TGI in test [12], in [6], in test [13] and in test [7] was greater than 100 µM in each case.
On to `Cc1ccc(N2C(=O)/C(=c3\s/c(=C(/N)O)c(=N)n3-c3ccccc3)SC2=S)cc1`, for which the TGI in test [8], in test [1], in [9], in test [10], in test [4] and in test [5] was greater than 100 µM each time. The TGI in test [12], in test [6], in test [13] and in test [7] was greater than 100 µM throughout.
Take `CCC12C=CCN3CC[C@]4(C(=C(C(=O)OC)[C@@H]1Nc1ccn(C5OC(COC(C)=O)C(OC(C)=O)C5OC(C)=O)c(=O)n1)Nc1ccccc14)C32` (stereo partly drawn): the TGI in test [8] came to 9.41 µM; in test [1] it was 8 µM; in test [9] it was 23.5 µM; in test [10] it was 8.62 µM; in test [4], 14.7 µM; in test [11] it was 15.8 µM. The TGI was 8.83 µM in test [5]; 9.27 µM in test [12]; 8.43 µM in test [6]; 12.6 µM in test [13]; 7.17 µM in [7].
Take `CCOc1ccc(N=Cc2cc(OC)c(OC)c(OC)c2)cc1`: the TGI was 32.1 µM in test [8]; greater than 100 µM in [1]; greater than 100 µM in test [9]; greater than 100 µM in test [10]; 45.1 µM in test [4]; greater than 100 µM in test [11]. In addition, the TGI in test [5], in test [12], in [6], in test [13] and in test [7] was greater than 100 µM each time.
As for `CC1=NN(C(=O)c2ccc(Cl)cc2)C(=O)/C1=C/c1cccc(O)c1`, the TGI in test [8], in test [1], in test [9], in test [10], in [4] and in test [11] was greater than 100 µM each time. In addition, the TGI in test [5], in test [12], in [6], in test [13] and in test [7] was greater than 100 µM in each case.
With `CCN(CC)CC(C)(C)C(=O)/C=C/c1ccc(C)cc1`, the TGI in test [8] was determined as 15.7 µM; in test [1], 27.9 µM; in test [9] it was 39.9 µM; in test [10] it was 19.4 µM; in test [11], 29.1 µM; in [5], 32.9 µM. For the same compound, the TGI turned out to be 25 µM in [12], 27.8 µM in test [6] and 8.93 µM in test [7].
As for `Nc1nc(=O)n(C2OC(CO)C(O)C2O)cc1F` (stereo not drawn), the TGI in test [8] is greater than 100 µM; in [9], 0.268 µM; in test [4], greater than 100 µM; in [11] it was greater than 100 µM; in test [5], 0.175 µM; in test [12] it was greater than 100 µM. The TGI in test [6] and in [7] was greater than 100 µM throughout.
For `COc1cc2cc(C(=O)N3CC(COS(C)(=O)=O)c4c3cc([N+](=O)[O-])c3ccccc43)[nH]c2c(OC)c1OC` (stereo not drawn), the TGI was greater than 31.6 µM in test [8]; greater than 31.6 µM in test [1]; greater than 100 µM in [2]; greater than 31 µM in test [10]; greater than 31.6 µM in [3]; greater than 31.6 µM in [4]. The TGI in [11] was greater than 50 µM; in test [5], greater than 31.6 µM; in [12], greater than 31.6 µM; in test [6] it was greater than 31.6 µM; in [7], greater than 31.6 µM.
With `Nc1ncnc2c1ncn2CC(OCP(=O)(O)O)Oc1ccccc1` (stereo not drawn), the TGI in test [8], in test [1], in test [2], in test [3], in test [4] and in [11] was greater than 100 µM in each case. For the same compound, the TGI in test [5], in [12] and in [6] was greater than 100 µM throughout.
Take `COc1cccc(/C=N/n2c(-c3ccccc3)n[nH]c2=O)c1`: the TGI in test [8], in test [1], in test [2], in test [9], in test [10] and in [3] was greater than 100 µM in each case. Also, the TGI in test [4] was greater than 100 µM; in test [11] it was greater than 100 µM; in test [5] it was 63.5 µM; in [12], greater than 100 µM; in test [6], greater than 100 µM.
As for `COC(CNC(=O)C(C)NC(=O)C(C)NC(=O)c1ccccc1)OC` (stereo not drawn), the TGI in test [8], in test [1], in [2], in test [9], in [10] and in test [3] was greater than 100 µM throughout. Further, the TGI in [4], in test [11] and in test [7] was greater than 100 µM throughout.
In the case of `Cc1ccc2c(c1)NC(=O)C(N=[N+]=[N-])(c1ccccc1)C2=O` (stereo not drawn), the TGI in test [8] is greater than 100 µM; in [1] it was greater than 100 µM; in [9], 71.5 µM; in [10], greater than 100 µM; in [11] it was 78.1 µM; in test [5], greater than 100 µM. For the same compound, the TGI in test [12] is 98.1 µM; in [6] it was greater than 100 µM; in [13] it was 37.5 µM; in test [7] it was 45.6 µM.
For `Cc1c2n(c3ccccc13)CC1C2N(C)OC1(C)C` (stereo not drawn), the TGI in test [1], in test [9], in [10], in test [4], in [11] and in test [5] was greater than 100 µM in each case. The TGI in test [12], in test [6] and in [7] was greater than 100 µM throughout.
